In patent US20030226169A1, “DNA sequences encoding antifungal proteins” (priority 1995, published 2003):
Values after ≈ are worked out from the molar mass of the structure shown. Non-standard residues stand in square brackets, D forms with d. Residues, ends and D or L forms follow the SMILES beside them. Abu = CC[C@H](N)C(=O)O

System: Fusarium culmorum (IMI 180420)
Test: Antifungal growth inhibition microplate assay (photospectrometry)
Type: cell-based
Settings: for IC50 SMF + pH5 / IC50 SMF + pH7 / IC50 ½ PDB: Table 14: 18-, 19-, 20-mer peptides with C-terminal Phe49; for IC50 ½ PDB: peptides single experiment; for IC50 / MIC / F CULMORUM IC50 / F CULMORUM MIC / F CULMORUM IC: ½ PDB; for IC50 / F CULMORUM IC50 / F CULMORUM IC: the source numbers peptides by N-terminal amino acid; for F CULMORUM IC50: Table 7 / FIG. 8: Rs-AFP1-based 12-mer split peptides; for antifungal activity (in words): overlapping 13- to 20-mer MPS peptides Ile26-Phe49, Cys replaced by alpha-aminobutyric acid, FIGS. 10-13; for F CULMORUM IC: Table 6 / FIG. 8: Rs-AFP1-based 9-mer split peptides
Experimental: The following fungal strains were used: Alternaria brassicicola (MUCL 20297), Ascophyta pisi (MUCL 30164), Botrytis cinerea (MUCL 30158), Fusarium culmorum (IMI 180420) and Verticillium dahliae (MUCL 19210).
Fungi were grown on six cereal agar plates at room temperature and under white fluorescent light except for F culmorum and V dahliae which were grown in the dark. The duration of the spore harvest varied between 10 and 25 days depending on the strain. Spores were collected as follows. Five to ten ml of sterile milli-Q water was poured into each dish and the surface of the agar was rubbed with a sterile spatula to obtain a suspension containing mycelium and spores. This suspension was filtered through a sterile glasswool-plugged funnel and the filtrate containing the spores was collected in a sterile polypropylene centrifuge tube. The A brassicicola spores were suspended in sterile 0.1 Tween 20 (Merk, 822184) due to their hydrophobic nature. The spore suspensions were then washed twice by centrifugation at 2,400×g for 15 minutes and resuspended in a small volume of steril milli-Q water. The spore density was determined in a counting chamber and then adjusted to 4×10^7 spores per ml. Aliquots of the spore suspension were transferred to sterile microtubes and an equal volume of sterile 50% glycerol (Merck, 4091) was added to each tube so that a final spore suspension of 2×10^7 spores per ml in 25% glycerol was obtained. After careful mixing of the stock, the spore suspension was transferred in 100 μl aliquots to sterile microtubes and stored at −80° C.
Antifungal activity was measured by photospectrometry as described by Broekaert et al, (1990, FEMS Microbiol Lett, 69:55-60). Tests were performed by adding 20 μl of test solution and 80 μl of a fungal spore suspension (2×10^4 spores/ml) per well in a sterile flat-bottom 96-well microtiterplate. The spore suspension was prepared by diluting the stock spore suspension ([…] in 25% glycerol) 1:1000 in half-strength potato dextrose broth. A positive growth control consisting of eight wells containing 20 μl of sterile milli-Q water and 80 μl of the fungal spore suspension was included in each test. The microtiterplates were incubated (with the lid on) in an aerated place at room temperature and under conditions of darkness for all test organisms.
After 30 minutes of incubation (when the spores are settled on the well bottom) the optical density was measured in a microplate reader (Bio Rad 3550-UV) at 595 nm. Incubation of the microtiterplates continued until the optical density of the control microculture was between 0.250 and 0.500, which took approximately 72 hours (96 hours for V dahliae). Percentage of growth inhibition (% GI) was estimated as 100 times the ratio of the corrected absorbance of the control microculture minus the corrected absorbance of the test microculture over the corrected absorbance of the control microculture at 595 nm. The corrected absorbance values equal the absorbance at 595 nm of the culture measured after 72 or 96 hours minus the absorbance at 595 nm measured after 30 minutes.
% GI=[(Acontrol−Atest/Acontrol]×100
where Acontrol=(A72/96h−A30min)control
The IC50 value is defined as the concentration that gives a 50% growth inhibition after 72 or 96 hours of incubation. The minimum inhibitory concentration (MIC) corresponds to the minimum concentration that gives 100% growth inhibition after 72 or 96 hours incubation.

[1] = Table 4 / FIG. 6: Rs-AFP2-based 12-mer split peptides
[2] = Table 4: Rs-AFP2-based 12-mer split peptides, triplicate
[3] = Table 3 / FIG. 6: Rs-AFP2-based 9-mer split peptides
[4] = Table 3: Rs-AFP2-based 9-mer split peptides, duplicate
[5] = Table 7: Rs-AFP1-based 12-mer split peptides
[6] = Table 6: Rs-AFP1-based 9-mer split peptides

CC[C@H](NC(=O)[C@H](CO)NC(=O)CNC(=O)[C@H](Cc1c[nH]cn1)NC(=O)[C@H](CCCNC(=N)N)NC(=O)[C@H](C)NC(=O)[C@H](CCCCN)NC(C)=O)C(=O)N[C@@H](CC(N)=O)C(=O)N[C@@H](Cc1ccc(O)cc1)C(=O)N[C@H](C(=O)N[C@@H](Cc1ccccc1)C(=O)N1CCC[C@H]1C(=O)N[C@@H](C)C(=O)N[C@@H](Cc1c[nH]cn1)C(=O)N[C@@H](CCCCN)C(=O)N[C@@H](CC)C(=O)N[C@H](C(=O)N[C@@H](CC)C(=O)N[C@@H](Cc1ccc(O)cc1)C(=O)N[C@@H](Cc1ccccc1)C(N)=O)[C@@H](C)CC)C(C)C [Peptide Q06, KARHGSBNYVFPAHKBIBYF] (Ac-KARHGS[Abu]NYVFPAHK[Abu]I[Abu]YF-NH2)
IC50 SMF + pH5 (duplo): 31 ± 17 μg/ml
IC50 SMF + pH7 (duplo): 62 ± 8 μg/ml
IC50 ½ PDB: 4.8 µg/mL (≈ 2.06 µM)

CC[C@H](C)[C@H](NC(=O)[C@H](CS)NC(=O)[C@H](CCCCN)NC(=O)[C@H](Cc1c[nH]cn1)NC(=O)[C@H](C)NC(=O)[C@@H]1CCCN1C(=O)[C@H](Cc1ccccc1)NC(=O)[C@@H](NC(=O)[C@H](Cc1ccc(O)cc1)NC(=O)[C@H](CC(N)=O)NC(=O)[C@H](CS)NC(=O)[C@H](CO)NC(=O)CNC(=O)[C@H](Cc1c[nH]cn1)NC(=O)[C@H](CCCNC(=N)N)NC(=O)[C@H](C)NC(C)=O)C(C)C)C(=O)N[C@@H](CS)C(=O)N[C@@H](Cc1ccc(O)cc1)C(=O)N[C@@H](Cc1ccccc1)C(N)=O [Peptide G1, ARHGSCNYVFPAHKCICYF] (Ac-ARHGSCNYVFPAHKCICYF-NH2)
IC50 1/2 PDB (Table 13: linear β2-β3 loop MPS peptides, 2 × 10^4 spores/ml, duplo): ARHGSCNYVFPAHKCICYF 17.6 ± 1.1 μg/ml

Ac-NQCIRLEKARHG-NH2 [compound 112]
IC50 [1]: 149 µg/mL
MIC [2]: 200 µg/mL

CC[C@H](C)[C@H](NC(=O)[C@H](CS)NC(=O)[C@H](CCC(N)=O)NC(=O)[C@H](CC(N)=O)NC(=O)[C@H](CCCCN)NC(=O)[C@H](CS)NC(=O)[C@H](C)NC(=O)[C@H](CC(N)=O)NC(C)=O)C(=O)N[C@@H](CCCNC(=N)N)C(N)=O [compound 65] (Ac-NACKNQCIR-NH2)
IC50 [3]: 144 µg/mL (≈ 132 µM)
MIC [4]: 200 µg/mL (≈ 183 µM)

CC[C@H](C)[C@H](NC(=O)[C@H](CS)NC(=O)[C@H](CCC(N)=O)NC(=O)[C@H](CC(N)=O)NC(=O)[C@H](CCCCN)NC(=O)[C@H](CS)NC(=O)[C@H](C)NC(=O)[C@H](CC(N)=O)NC(=O)[C@H](CC(N)=O)NC(=O)[C@H](CC(N)=O)NC(C)=O)C(=O)N[C@@H](CCCNC(=N)N)C(=O)N[C@@H](CC(C)C)C(N)=O [compound 106] (Ac-NNNACKNQCIRL-NH2)
IC50 [1]: 116 µg/mL (≈ 81 µM)
MIC [2]: 150 µg/mL (≈ 105 µM)

Ac-FPAHKC-NH2 [compound 40]
MIC (Table 2: Rs-AFP2-based 6-mer split peptides, duplicate): 100 µg/mL

110 (CKNQCIRLEKAR; listed as Raphanus sativus) [compound 110]
IC50 [1]: 148 µg/mL
MIC [2]: 200 µg/mL
F CULMORUM IC50: 223 µg/mL
F CULMORUM MIC [5]: 400 µg/mL

CC[C@H](NC(=O)[C@H](CO)NC(=O)CNC(=O)[C@H](Cc1c[nH]cn1)NC(=O)[C@H](CCCNC(=N)N)NC(=O)[C@H](C)NC(C)=O)C(=O)N[C@@H](CC(N)=O)C(=O)N[C@@H](Cc1ccc(O)cc1)C(=O)N[C@H](C(=O)N[C@@H](Cc1ccccc1)C(=O)N1CCC[C@H]1C(=O)N[C@@H](C)C(=O)N[C@@H](Cc1c[nH]cn1)C(=O)N[C@@H](CCCCN)C(=O)N[C@@H](CC)C(=O)N[C@H](C(=O)N[C@@H](CC)C(=O)N[C@@H](Cc1ccc(O)cc1)C(=O)N[C@@H](Cc1ccccc1)C(N)=O)[C@@H](C)CC)C(C)C [Peptide 001, ARHGSBNYVFPAHKBIBYF] (Ac-ARHGS[Abu]NYVFPAHK[Abu]I[Abu]YF-NH2)
IC50 SMF + pH5 (duplo): 102 ± 2 μg/ml
IC50 SMF + pH7 (duplo): 159 ± 5 μg/ml
IC50 ½ PDB: 5.6 µg/mL (≈ 2.54 µM)

RHGSBNYVFPAHKBIBY (Ac-RHGS[Abu]NYVFPAHK[Abu]I[Abu]Y-NH2; listed as Raphanus sativus) [SEQ ID NO: 107]
antifungal activity (in words): very active

CC[C@H](NC(=O)[C@H](CO)NC(=O)CNC(=O)[C@H](Cc1c[nH]cn1)NC(=O)[C@H](CCCNC(=N)N)NC(C)=O)C(=O)N[C@@H](CC(N)=O)C(=O)N[C@@H](Cc1ccc(O)cc1)C(=O)N[C@H](C(=O)N[C@@H](Cc1ccccc1)C(=O)N1CCC[C@H]1C(=O)N[C@@H](C)C(=O)N[C@@H](Cc1c[nH]cn1)C(=O)N[C@@H](CCCCN)C(=O)N[C@@H](CC)C(=O)N[C@H](C(=O)N[C@@H](CC)C(=O)N[C@@H](Cc1ccc(O)cc1)C(=O)N[C@@H](Cc1ccccc1)C(N)=O)[C@@H](C)CC)C(C)C [Peptide P02, RHGSBNYVFPAHKBIBYF] (Ac-RHGS[Abu]NYVFPAHK[Abu]I[Abu]YF-NH2)
IC50 SMF + pH5 (duplo): 69 ± 34 μg/ml
IC50 SMF + pH7 (duplo): 133 ± 6 μg/ml
IC50 ½ PDB: 8.9 µg/mL (≈ 4.17 µM)

116 (RLEKARHGSCNY; listed as Raphanus sativus) [compound 116]
IC50 [1]: 202 µg/mL
MIC [2]: 400 µg/mL
F CULMORUM IC50: 359 µg/mL
F CULMORUM MIC [5]: 400 µg/mL

Ac-QCIRLEKAR-NH2 [compound 70]
IC50 [3]: 78 µg/mL
MIC [4]: 100 µg/mL

Ac-KNQCIRLEKARH-NH2 [compound 111]
IC50 [1]: 126 µg/mL
MIC [2]: 200 µg/mL

Ac-CIRLEKARH-NH2 [compound 71]
IC50 [3]: 66 µg/mL
MIC [4]: 100 µg/mL

Ac-NYVFPAHKC-NH2 [compound 83]
IC50 [3]: 175 µg/mL
MIC [4]: 250 µg/mL
F CULMORUM IC: 330 µg/mL
F CULMORUM MIC [6]: 400 µg/mL

CC[C@H](C)[C@H](NC(=O)[C@H](CS)NC(=O)[C@H](CCC(N)=O)NC(=O)[C@H](CC(N)=O)NC(=O)[C@H](CCCCN)NC(=O)[C@H](CS)NC(=O)[C@H](C)NC(C)=O)C(=O)N[C@@H](CCCNC(=N)N)C(=O)N[C@@H](CC(C)C)C(=O)N[C@@H](CCC(=O)O)C(=O)N[C@@H](CCCCN)C(=O)N[C@@H](C)C(N)=O [compound 109] (Ac-ACKNQCIRLEKA-NH2)
IC50 [1]: 106 µg/mL (≈ 74.8 µM)
MIC [2]: 150 µg/mL (≈ 106 µM)

Ac-YVFPAHKCI-NH2 [compound 84]
IC50 [3]: 175 µg/mL
MIC [4]: 400 µg/mL
F CULMORUM IC: 145 µg/mL
F CULMORUM MIC [6]: 250 µg/mL

CC[C@H](C)[C@H](NC(=O)[C@H](CS)NC(=O)[C@H](CCC(N)=O)NC(=O)[C@H](CC(N)=O)NC(=O)[C@H](CCCCN)NC(=O)[C@H](CS)NC(=O)[C@H](C)NC(=O)[C@H](CC(N)=O)NC(C)=O)C(=O)N[C@@H](CCCNC(=N)N)C(=O)N[C@@H](CC(C)C)C(=O)N[C@@H](CCC(=O)O)C(=O)N[C@@H](CCCCN)C(N)=O [compound 108] (Ac-NACKNQCIRLEK-NH2)
IC50 [1]: 150 µg/mL (≈ 103 µM)
MIC [2]: 200 µg/mL (≈ 137 µM)

CC[C@H](C)[C@H](NC(=O)[C@H](CS)NC(=O)[C@H](CCC(N)=O)NC(=O)[C@H](CC(N)=O)NC(=O)[C@H](CCCCN)NC(=O)[C@H](CS)NC(=O)[C@H](C)NC(C)=O)C(=O)N[C@@H](CCCNC(=N)N)C(=O)N[C@@H](CC(C)C)C(N)=O [compound 66] (Ac-ACKNQCIRL-NH2)
IC50 [3]: 105 µg/mL (≈ 96.4 µM)
MIC [4]: 150 µg/mL (≈ 138 µM)

113 (QCIRLEKARHGS; listed as Raphanus sativus) [compound 113]
IC50 [1]: 127 µg/mL
MIC [2]: 200 µg/mL
F CULMORUM IC50: 362 µg/mL
F CULMORUM MIC [5]: 400 µg/mL

HGSBNYVFPAHKBIBY (Ac-HGS[Abu]NYVFPAHK[Abu]I[Abu]Y-NH2; listed as Raphanus sativus) [SEQ ID NO: 99]
antifungal activity (in words): nonactive
